Experimental data reported in PMC3039689, “Identification of Small Molecule Lead Compounds for Visceral Leishmaniasis Using a Novel Ex Vivo Splenic Explant Model System” (PLoS Neglected Tropical Diseases, 2011).
Where two headings read alike, the source gives them in different places.

What was measured:
[1] = system: luciferase-transfected Leishmania donovani; assay: Anti-leishmanial efficacy (EC50) in the ex vivo splenic explant model; type: cell-based
Description: To establish the plate assay for drug screening, the spleens from 2 infected hamsters were aseptically removed and placed in a Petri dish containing 5 mL of Collagenase D (Roche) at 2 mg/mL of buffer (10 mM Hepes pH 7.4, 150 mM NaCl, 5 mM KCl, 1 mM MgCl2, 1.8 mM CaCl2). The spleen was infiltrated by injection with approximately 2 mL of Collagenase solution, the tissue was cut into small pieces using sharp scissors, and incubated for 20 minutes at 37°C. The cell suspension and remaining tissue fragments were gently passed through a 100 µm cell strainer (B–D) to obtain a single cell suspension, which was washed twice by centrifugation (500 g for 7 min at 4°C) and re-suspended in culture medium composed of DMEM (Gibco), 5% FBS, 1 mM Sodium pyruvate (Gibco), 1X MEM amino acids solution (Sigma), 0.02% v/v/EDTA, 10 mM HEPES buffer (Cellgro) and 100 IU/mL Penicillin/100 […] Streptomycin solution (Cellgro).
The anti-leishmanial efficacy of the compounds was determined using the splenic explant model in a 96-well plate format. […] Because variation in the parasite burden between different explant cultures was expected, the concentration of cells used in each experiment was adjusted to give approximately 100 counts by luminometry (equivalent to ∼240,000 parasites). The number of surviving parasites was determined by luminometry as described above.

[2] = system: LUC-transfected L. donovani; assay: Anti-leishmanial efficacy (EC50) in in vitro infected peritoneal macrophages; type: cell-based, Leishmania donovani; conditions: 48 h, read-out: Peritoneal Macrophages EC50 (mean±SE)
Description: Macrophages from uninfected hamsters were obtained by peritoneal lavage with DMEM (Gibco) and Heparin (2 units/ml; Elkins-Sinn, Cherry Hill NJ). The cells were washed twice by centrifugation and re-suspended in culture medium composed of DMEM, 5% FBS, 1 mM sodium pyruvate (Gibco), 1X MEM amino acids solution (Sigma), 0.02% v/v/EDTA and 10 mM HEPES buffer (Cellgro). The peritoneal macrophages were adjusted to 5×10^5 cells/ml and allowed to adhere overnight at 37°C and 5% CO2 in flat bottom 96-well plates. Adherent macrophages were infected at 1∶5 ratio (cells:parasites) with stationary phase LUC-transfected L. donovani promastigotes and cultured at 37°C, 5% CO2, for 2 h. The extracellular parasites were then removed by washing with warm Dulbeco's PBS (Gibco). Infected macrophages were exposed to 2-fold serial dilutions of test compounds as described above for the ex vivo culture system. The infected macrophages were incubated for 48 hr in 5% CO2 atmosphere at 37°C. The number of surviving parasites was determined by luminometry and the effective concentration (EC50) calculated by linear regression (GraphPad Prism 5.0) as described above for the ex vivo system. The mean and standard error of the EC50 from 3 different experiments were considered as the final EC50. […] Tilorone was obtained from Hangzhou Trylead Chemical Tech (China). All compounds were dissolved in sterile dimethyl sulfoxide (analytical grade, cell culture tested; Sigma) and stored frozen at −20°C until used.

[3] = Cell toxicity (CC50) in the HepG2 cell line, CellTiter-Glo; type: cell-based, human; conditions: human
Description: After 24 hours of culture at 37°C the number of viable cells was determined by quantification of the ATP present in the cell using the CellTiter-Glo luminescent Cell Viability Assay (Promega).

Leishmania donovani = assay: Discrimination between amphotericin B treated and untreated splenic explant cultures at serial dilutions of cells; type: cell-based; conditions: AMB 0.126 µg/mL, 48 h; for Parasite counts, Treated (AMB): mean ± SD; for Reduction in parasite burden: with reference to controls
splenocytes [4] = system: splenocytes
[5] = system: luciferase-transfected Leishmania donovani; assay: Primary screening of compound libraries in the ex vivo splenic explant model (Z score); type: cell-based; conditions: 10 µM; for Outcome of library screening (significant Z score / hit): compounds as included in the libraries
From the text: The following chemical libraries in 96-well plate format were screened: NINDS Custom Collection II (MicroSource Discovery Systems, Inc.), which consists of 1,040 classical therapeutic agents, established experimental inhibitors, receptor agonist drugs and other bioactive compounds [24], [25], [26]; the Pure Natural Products library (MicroSource Discovery Systems, Inc.) a collection of 800 pure natural products and derivatives; and The Diversity Set and Natural Products set (Developmental Therapeutics Program, NCI/NIH) a set of 2,195 compounds selected from the almost 140,000 compounds based on diversity of structure, [28], [29]. Libraries containing the compounds at 10 mM concentration in DMSO were diluted into master plates at 200 µM concentration in DMEM. The 200 µM master plates were further diluted by transferring an aliquot of 5 µl into a 96-well sterile white-bottom plate (Costar) containing 45 µl of culture medium at 4°C. Splenocytes (100,000 in 50 µl of culture medium) that had been obtained from infected hamsters as described above were added to the assay plate for a final drug concentration of 10 µM. The positive control (splenocytes treated with 0.2 µM Amphotericin B) and negative controls (0.1% DMSO vehicle) were distributed in the two outer columns (8 wells each) of each plate in alternating fashion to minimize any edge effect. After 48 hours of culture at 37°C in a humidified atmosphere and 5% CO2, the plates were centrifuged at 500 g for 7 min, the supernatant discarded using a multi- channel vacuum aspirator (Costar), and 20 µl of 1X cell culture lysis reagent (Promega) was added to the cells. To complete the lysis procedure the plates were frozen at −70°C and then thawed, and the luciferase activity determined in a plate luminometer following addition of 100 µl of the luciferin substrate at room temperature (Promega). The Z score was calculated for each compound as the mean counts of the compound tested minus the mean counts of all compounds in the plate divided by the SD all compounds in the plate. The mean Z score for each drug was calculated based on duplicate screenings performed in two different experiments. A Z score of ≤–1.96, which corresponds to a p value of ≤0.05 (95% confidence limit), was used as the threshold to identify the hits. […] The quality of each assay was determined by calculating the Z prime (Z') factor [31], which measures the discrimination between positive and negative controls in the screen. The Z' factor was calculated as 1 – [(3SD positive controls +3SD negative controls)/absolute value of (mean of the positive controls – mean of the negative controls)].

splenocytes [6] = assay: Flow cytometry of propidium iodide stained splenocytes cultured with test compound; conditions: 48 hr culture period, data not shown
[7] = Leishmania donovani, ex vivo splenic explant, 48 h, luminometry, at least two experiments, compound from screened library, read-out: Ex vivo model EC50 Mean
[8] = Leishmania donovani, 48 h, 48 h of culture, luminometry, purchased compounds dissolved in DMSO, read-out: Ex vivo model EC50 (mean±SE)
[9] = Leishmania donovani, Peritoneal macrophage, hamster peritoneal macrophages infected in vitro, luminometry, purchased compounds

Compound: CCCCCC[C@H]1C(=O)O[C@H](C)[C@H](NC(=O)c2cccc(NC=O)c2O)C(=O)O[C@@H](C)[C@@H]1OC(=O)CC(C)C [ANTIMYCIN A]
- EC50 ([1]; Leishmania donovani, 50% reduction in parasite counts in the ex vivo model, read-out: EC50 Mean (Table S2)): 11.6 µM
- EC50 ([1]; Leishmania donovani, 48 h of culture, luminometry, purchased compounds dissolved in DMSO, read-out: Ex vivo model EC50 (mean±SE)): 1.27 ± 1.07 µM
- EC50 [1, 7]: 11.6 µM
- EC50 ([2]; Leishmania donovani, Peritoneal macrophage, in Mesocricetus auratus): 1670 ± 1050 nM
- CC50 at 24 h ([3]; HepG2 cell line, 24 h, ATP luminescence, compound from screened library, read-out: HepG2 CC50 Mean): 58.4 µM

Compound: C[C@@H]1[C@H](O)[C@@H](C)/C=C/C=C/C=C/C=C/C=C/C=C/C=C/[C@H](O[C@@H]2O[C@H](C)[C@@H](O)[C@H](N)[C@@H]2O)C[C@@H]2O[C@](O)(C[C@@H](O)C[C@@H](O)[C@H](O)CC[C@@H](O)C[C@@H](O)CC(=O)O[C@H]1C)C[C@H](O)[C@H]2C(=O)O [Amphotericin B]
- EC50 [1, 8]: 0.09 ± 0.03 µM
- EC50 ([1]; Leishmania donovani, ex vivo model, amphotericin B present in the library (in DMSO vehicle), read-out: EC50): 10.7 ± 0.9 µM
- EC50 [2, 9]: 110 ± 10 nM
- CC50 at 24 h [3]: 104 µM
- Parasite counts, Treated (AMB) (Leishmania donovani; 3,125 cells per well): 0.1±0.1 photons/sec
- Reduction in parasite burden (Leishmania donovani; 3,125 cells per well): 83.5%
- Parasite counts, Treated (AMB) (Leishmania donovani; 6,250 cells per well): 0.2±0.0 photons/sec
- Reduction in parasite burden (Leishmania donovani; 6,250 cells per well): 86.3%
- Parasite counts, Treated (AMB) (Leishmania donovani; 12,500 cells per well): 0.4±0.3 photons/sec
- Reduction in parasite burden (Leishmania donovani; 12,500 cells per well): 86.2%
- Parasite counts, Treated (AMB) (Leishmania donovani; 25,000 cells per well): 0.7±0.0 photons/sec
- Reduction in parasite burden (Leishmania donovani; 25,000 cells per well): 86.4%
- Parasite counts, Treated (AMB) (Leishmania donovani; 50,000 cells per well): 2.5±0.5 photons/sec
- Reduction in parasite burden (Leishmania donovani; 50,000 cells per well): 82.3%
- Parasite counts, Treated (AMB) (Leishmania donovani; 100,000 cells per well): 8.5±0.2 photons/sec
- Reduction in parasite burden (Leishmania donovani; 100,000 cells per well): 83.3%
- Parasite counts, Treated (AMB) (Leishmania donovani; 200,000 cells per well): 34.8±3.7 photons/sec
- Reduction in parasite burden (Leishmania donovani; 200,000 cells per well): 76.0%
- Splenocyte viability (splenocytes [4]): no loss of splenocyte viability

Compound: CCN(CC)C(=S)SSC(=S)N(CC)CC [Disulfiram]
- EC50 [1, 8]: 0.31 ± 0.03 µM
- EC50 [1, 7]: 8.1 µM
- EC50 [2, 9]: 160 ± 30 nM
- CC50 at 24 h [3]: 53 µM

Compound: OC(Cn1cncn1)(Cn1cncn1)c1ccc(F)cc1F [Fluconazole]
- EC50 [1, 8]: > 250 µM
- Activity in the ex vivo system (screen or EC50 determination) ([1]; transgenic L. donovani, ex vivo system): no activity
- EC50 [2, 9]: > 250000 nM
- Outcome of library screening (significant Z score / hit) [5]: did not show a significant Z score

Compound: CCCCCCCCCCCCCCCCOP(=O)([O-])OCC[N+](C)(C)C [Miltefosine]
- EC50 [1, 8]: 1.02 ± 0.08 µM
- EC50 ([1]; Leishmania donovani, ex vivo model, freshly solubilized compound from commercial source, read-out: EC50): 1 µM
- Anti-leishmanial activity, repeated testing ([1]; compound from the NCI chemical library): inactive
- EC50 [2, 9]: 2280 ± 210 nM
- Outcome of library screening (significant Z score / hit) [5]: did not show a significant Z score

Compound: CC[C@@]1([C@@H]2O[C@@H]([C@H]3O[C@@](O)(CO)[C@H](C)C[C@@H]3C)C[C@@H]2C)CC[C@H]([C@]2(C)CC[C@]3(C[C@H](O)[C@@H](C)[C@@H]([C@@H](C)[C@@H](OC)[C@H](C)C(=O)O)O3)O2)O1 [Monensin A]
- EC50 [1, 8]: 0.85 ± 0.68 µM
- EC50 [2, 9]: 230 ± 150 nM

Compound: CNCCC=C1c2ccccc2CCc2ccccc21 [Nortriptyline]
- EC50 [1, 8]: 6.03 ± 0.28 µM
- EC50 [2, 9]: 2650 ± 350 nM

Compound: N=C(N)c1ccc(OCCCCCOc2ccc(C(=N)N)cc2)cc1 [Pentamidine]
- EC50 [1, 8]: 3.02 ± 0.34 µM
- EC50 ([1]; Leishmania donovani, Splenocyte, ex vivo splenocytes system, read-out: EC50): 3 µM
- EC50 [2, 9]: 890 ± 370 nM
- Z score ([5]; 48 h, duplicate screen, hit threshold -1.96): −1.87
- Outcome of library screening (significant Z score / hit) [5]: did not show a significant Z score

Compound: CCN(CC)CCOc1ccc2c(c1)C(=O)c1cc(OCCN(CC)CC)ccc1-2 [Tilorone]
- EC50 [1, 8]: 0.84 ± 0.47 µM
- EC50 ([1]; Leishmania donovani, 48 h, ex vivo splenic explant, 48 h, luminometry, at least two experiments, compound from screened library, read-out: Ex vivo model EC50 Mean): 7.7 µM
- EC50 [2, 9]: 1480 ± 350 nM
- CC50 at 24 h ([3]; HepG2 cells, HepG2 cell line, 24 h, ATP luminescence, compound from screened library, read-out: HepG2 CC50 Mean): 46.8 µM
- Splenocyte viability (splenocytes [6]): no loss of splenocyte viability

Compound: Meglumine antimoniate
- EC50 ([1]; 48 h of culture, luminometry, purchased compounds dissolved in DMSO, read-out: Ex vivo model EC50 (mean±SE)): 270 ± 57.5 µM
- EC50 ([2]; hamster peritoneal macrophages infected in vitro, luminometry, purchased compounds): 146000 ± 42000 nM
